Reference: the NIST ThermoML archive (doi:10.1021/je800635g)

Details: Liquid, Falling or rolling sphere viscometry

Cc1ccc(C)cc1 [1,4-dimethylbenzene]
viscosity [mPa·s]
Details	313.15 K	333.15 K	353.15 K	373.15 K	393.15 K	413.15 K	433.15 K	453.15 K	473.15 K
100 kPa	0.499	0.409	0.34	0.292	–	–	–	–	–
800 kPa	0.5029	0.412	0.346	0.297	0.254	0.221	0.192	0.168	–
1600 kPa	0.51	0.414	0.35	0.3	0.258	0.223	0.197	0.17	0.159
2400 kPa	0.516	0.417	0.356	0.303	0.262	0.226	0.201	0.172	0.163
3200 kPa	0.521	0.419	0.361	0.305	0.266	0.228	0.206	0.175	0.167

CC(=O)O [acetic acid]
viscosity [mPa·s]
Details	313.15 K	333.15 K	353.15 K	373.15 K	393.15 K	413.15 K	433.15 K	453.15 K	473.15 K
100 kPa	0.903	0.713	0.574	0.471	–	–	–	–	–
800 kPa	0.91	0.72	0.582	0.478	0.394	0.333	0.281	0.244	–
1600 kPa	0.917	0.727	0.59	0.486	0.402	0.34	0.287	0.251	0.213
2400 kPa	0.924	0.735	0.598	0.494	0.41	0.347	0.294	0.258	0.22
3200 kPa	0.932	0.743	0.605	0.502	0.418	0.354	0.302	0.264	0.226

CCCCCCCCCC [decane]
Details	viscosity [mPa·s]
313.15 K, 100 kPa	0.7051
323.15 K, 100 kPa	0.6356
333.15 K, 100 kPa	0.5646
333.15 K, 800 kPa	0.5732
333.15 K, 1600 kPa	0.5714
333.15 K, 2400 kPa	0.5756
333.15 K, 3200 kPa	0.5792
343.15 K, 100 kPa	0.5069
353.15 K, 100 kPa	0.4514
363.15 K, 100 kPa	0.4136
373.15 K, 100 kPa	0.3729
373.15 K, 800 kPa	0.3773
373.15 K, 1600 kPa	0.3818
373.15 K, 2400 kPa	0.3851
373.15 K, 3200 kPa	0.3906
393.15 K, 1600 kPa	0.3216
413.15 K, 1600 kPa	0.279
433.15 K, 1600 kPa	0.2328
453.15 K, 1600 kPa	0.2072
473.15 K, 1600 kPa	0.174

Cc1ccccc1 [toluene]
Details	viscosity [mPa·s]
313.15 K, 100 kPa	0.4651
323.15 K, 100 kPa	0.4158
333.15 K, 100 kPa	0.3758
333.15 K, 800 kPa	0.3839
333.15 K, 1600 kPa	0.3889
333.15 K, 2400 kPa	0.3955
333.15 K, 3200 kPa	0.4008
343.15 K, 100 kPa	0.3428
353.15 K, 100 kPa	0.3137
363.15 K, 100 kPa	0.2901
373.15 K, 100 kPa	0.268
373.15 K, 800 kPa	0.2706
373.15 K, 1600 kPa	0.2742
373.15 K, 2400 kPa	0.278
373.15 K, 3200 kPa	0.2822
393.15 K, 1600 kPa	0.2397
413.15 K, 1600 kPa	0.2058
433.15 K, 1600 kPa	0.1769
453.15 K, 1600 kPa	0.1517
473.15 K, 1600 kPa	0.1353
